Reference: ChEMBL document CHEMBL4130372, “The antitrypanosomal and antitubercular activity of some nitro(triazole/imidazole)-based aromatic amines” (Eur J Med Chem, 2017)
Values after ≈ are worked out from the molar mass of the structure shown. Active and inactive are the calls of the source. No cut-off for these calls is given here.

What was measured:
[1] = tested on: Trypanosoma brucei rhodesiense; assay: Antitrypanosomal activity against blood stream form of Trypanosoma brucei rhodesiense STIB900 trypomastigotes after 72 hrs by Alamar Blue assay; format: functional, organism-based; settings: STIB900, 72 h
[2] = Selectivity index, ratio of IC50 for rat L6 cells to IC50 for blood stream form of Trypanosoma brucei rhodesiense STIB900; format: toxicity; settings: read-out: Ratio IC50
[3] = tested on: Mycobacterium tuberculosis; assay: Antitubercular activity against Mycobacterium tuberculosis H37Rv ATCC 27294 after 5 days measured under aerobic conditions by fluorescence-based assay; format: functional, organism-based; settings: H37Rv ATCC 27294, 120 h
Trypanosoma cruzi [4] = assay: Potency index, ratio of benznidazole IC50 to compound IC50 for Trypanosoma cruzi Tulahuen C4; format: functional
[5] = Selectivity index, ratio of IC50 for rat L6 cells to IC50 for […] amastigotes infected in rat L6 cells; format: toxicity, cell-based; settings: read-out: Ratio IC50
[6] = tested on: Mycobacterium tuberculosis; assay: Bactericidal activity against Mycobacterium tuberculosis H37Rv ATCC 27294 assessed as minimum concentration required to achieve a 2-log kill measured after 21 days under hypoxic conditions; format: functional; settings: H37Rv ATCC 27294, 504 h
[7] = Cytotoxicity against African green monkey Vero cells assessed as reduction in cell viability after 2 days by cell-titer-glo luminescent assay; format: cell-based; settings: chlorocebus sabaeus, read-out: TC50
[8] = tested on: Mycobacterium tuberculosis; assay: Antitubercular activity against Mycobacterium tuberculosis H37Rv ATCC 27294 expressing luxABCDE operon incubated for 10 days under hypoxic conditions followed by incubation under aerobic conditions for 28 hrs by LORA method; format: functional, organism-based
[9] = tested on: Mycobacterium tuberculosis; assay: Antitubercular activity against Mycobacterium tuberculosis INH-R2 ATCC 35822 after 5 days by fluorescence-based assay; format: functional; settings: INH-R2 ATCC 35822, 120 h
[10] = tested on: Mycobacterium tuberculosis; assay: Antitubercular activity against Mycobacterium tuberculosis RIF-R2 ATCC 35828 after 5 days by fluorescence-based assay; format: functional; settings: RIF-R2 ATCC 35828, 120 h
Trypanosoma cruzi [11] = assay: Antitrypanosomal activity against Trypanosoma cruzi Tulahuen C4 amastigotes infected in rat L6 cells after 96 hrs by CPRG/nonidet-based inverted microscopic analysis; format: functional, organism-based; settings: Tulahuen C4, L6, 96 h
L6 = assay: Cytotoxicity against rat L6 cells assessed as reduction in cell viability after 2 days by cell-titer-glo luminescent assay; format: cell-based; settings: L6, 48 h
[12] = tested on: Mycobacterium tuberculosis; assay: Antitubercular activity against Mycobacterium tuberculosis H37Rv ATCC 27294 expressing […] infected in mouse J774 cells assessed as log reduction in intracellular bacterial burden at 30 uM after 4 days by luminescence assay; format: functional
[13] = tested on: Mycobacterium tuberculosis; assay: Antitubercular activity against Mycobacterium tuberculosis H37Rv ATCC 27294 expressing […] infected in mouse J774 cells assessed as log reduction in intracellular bacterial burden at 0.6 uM after 4 days by luminescence assay; format: functional
[14] = tested on: Mycobacterium tuberculosis; assay: Bactericidal activity against Mycobacterium tuberculosis H37Rv ATCC 27294 assessed as minimum concentration required to achieve a 2-log kill measured after 21 days; format: functional
[15] = Selectivity index, ratio of TC50 for African green monkey Vero cells to MIC for Mycobacterium tuberculosis H37Rv ATCC 27294 expressing luxABCDE operon; format: toxicity; settings: read-out: Selectivity Index
[16] = tested on: Mycobacterium tuberculosis; assay: Antitubercular activity against Mycobacterium tuberculosis H37Rv ATCC 27294 expressing […] infected in mouse J774 cells assessed as log reduction in intracellular bacterial burden at 20 uM after 4 days by luminescence assay; format: functional
[17] = tested on: Mycobacterium tuberculosis; assay: Antitubercular activity against Mycobacterium tuberculosis H37Rv ATCC 27294 expressing luxABCDE operon at 100 uM incubated for 10 days under hypoxic conditions followed by incubation under aerobic conditions for 28 hrs by LORA method; format: functional
[18] = tested on: Mycobacterium tuberculosis; assay: Antitubercular activity against Mycobacterium tuberculosis H37Rv ATCC 27294 expressing […] infected in mouse J774 cells assessed as log reduction in intracellular bacterial burden at 200 uM after 4 days by luminescence assay; format: functional

| Compound | IC50 [1] [µM] | selectivity ratio [2] | MIC [3] [µM] | Ratio IC50 (Trypanosoma cruzi [4]) | selectivity ratio [5] | MIC [8] [µM] | IC50 [3] [µM] | IC90 [3] [µM] | IC50 (Trypanosoma cruzi [11]) [µM] | IC50 (L6) [µM] | also measured |
| --- | --- | --- | --- | --- | --- | --- | --- | --- | --- | --- | --- |
| Cl.O=[N+]([O-])c1nccn1CCCNc1ccnc2cc(Cl)ccc12 | 1.4 | 18 | > 128 | 2.15 | 24 | – | – | – | – | – | MBC [6]: 8.4 to 50 µM; CC50 at 48 h [7]: 399 µM |
| CO[C@H]1/C=C/O[C@@]2(C)Oc3c(C)c(O)c4c(O)c(c(/C=N/N5CCN(C)CC5)c(O)c4c3C2=O)NC(=O)/C(C)=C\C=C\[C@H](C)[C@H](O)[C@@H](C)[C@@H](O)[C@@H](C)[C@H](OC(C)=O)[C@@H]1C [RIFAMPIN] | – | – | 0.015 (≈ 0.0123 µg/mL) | – | – | 0.022 (≈ 0.0181 µg/mL) | 0.0046 | 0.0049 | – | – | IC50 [8]: 0.00072 µM; IC90 [8]: 0.0037 µM; MIC [9]: 0.011 µM (≈ 0.00905 µg/mL); MIC [10]: > 50 µM |
| O=[N+]([O-])c1nccn1CCCNc1ncnc2ccccc12 | 13.2 | 2.9 | – | 1.11 | 21 | – | – | – | 1.83 | 38.6 | – |
| Clc1cccc2c(NCCCCn3cncn3)ccnc12 | 13.5 | 2.8 | – | 0.05 | 0.8 | – | – | – | 48.6 | 37.7 | – |
| Cl.O=[N+]([O-])c1ncn(CCCCNc2ccnc3cc(Cl)ccc23)n1 | 0.193 | 710 | – | 9.6 | 979 | – | – | – | – | – | – |
| NNC(=O)c1ccncc1 [ISONIAZID] | – | – | – | – | – | – | – | – | – | – | log(activity) [12]: 2.6; MIC [9]: > 200 µM; MIC [10]: 0.67 µM (≈ 0.0919 µg/mL); log(activity) [13]: 2.7 |
| O=C(Cn1ccnc1[N+](=O)[O-])NCc1ccccc1 [BENZNIDAZOLE] | – | – | – | – | – | – | – | – | 2.24 | – | – |
| O=[N+]([O-])c1nccn1CCCNc1ccnc2c(Cl)cccc12 | 1.29 | 83 | > 200 | 2.02 | 97 | 2.89 (≈ 0.959 µg/mL) | > 200 | > 200 | 1.11 | 107 | – |
| O=[N+]([O-])c1nccn1CCCCNc1ccnc2c(Cl)cccc12 | 1.27 | 29 | > 200 | 1.1 | 18 | 4.14 (≈ 1.43 µg/mL) | 41 | > 200 | 2.04 | 36.2 | IC50 [8]: 0.15 µM; IC90 [8]: 0.84 µM; MBC [14]: inactive; selectivity ratio [15]: 16; MIC [9]: > 200 µM; CC50 at 48 h [7]: 66 µM; log(activity) [16]: 1.5; MIC [10]: > 200 µM |
| Cl.O=[N+]([O-])c1nccn1CCCCNc1ccnc2cc(Cl)ccc12 | 1.87 | 36 | > 128 | 0.64 | 19 | – | – | – | – | – | MBC [6]: 12.8 to 25.7 µM; CC50 at 48 h [7]: > 1680 µM |
| O=[N+]([O-])c1ncn(CCCCNc2ncnc3ccccc23)n1 | 0.39 | 88 | 200 (≈ 62.7 µg/mL) | 2.57 | 39 | > 100 | 51 | 140 | 0.872 | 34.4 | IC50 [8]: 11 µM; IC90 [8]: > 100 µM; MBC ([14]; H37Rv ATCC 27294, 504 h): 100 µM (≈ 31.3 µg/mL); Activity [17]: 76%; MIC [9]: > 200 µM; CC50 at 48 h [7]: > 100 µM; log(activity) [18]: 0.7; MIC [10]: > 200 µM |
| Cc1ncc([N+](=O)[O-])n1CCO [METRONIDAZOLE] | – | – | > 200 | – | – | 200 (≈ 34.2 µg/mL) | > 200 | > 200 | – | – | IC50 [8]: 36 µM; IC90 [8]: 82 µM |
| Cl.O=[N+]([O-])c1ncn(CCCNc2ccnc3cc(Cl)ccc23)n1 | 0.309 | – | – | 2.2 | – | – | – | – | – | – | – |
| O=[N+]([O-])c1cn2c(n1)OC[C@@H](OCc1ccc(OC(F)(F)F)cc1)C2 [PRETOMANID] | – | – | – | – | – | – | – | – | – | – | MBC [6]: 17.8 to 35.7 µM (≈ 6.39 to 12.8 µg/mL) |
| O=[N+]([O-])c1nccn1CCCCNc1ncnc2ccccc12 | 2.58 | 3.5 | > 200 | 0.96 | 3.9 | 9.18 (≈ 2.87 µg/mL) | > 200 | > 200 | 2.32 | 8.96 | – |
| C[C@H]1COc2c(N3CCN(C)CC3)c(F)cc3c(=O)c(C(=O)O)cn1c23.C[C@H]1COc2c(N3CCN(C)CC3)c(F)cc3c(=O)c(C(=O)O)cn1c23.O [LEVOFLOXACIN] | – | – | – | – | – | – | – | – | – | – | MIC [9]: 1.3 µM; MIC [10]: 1.4 µM |
| O=[N+]([O-])c1ncn(CCCCNc2ccnc3c(Cl)cccc23)n1 | 0.038 | 1940 | > 200 | 3.9 | 128 | > 100 | > 200 | > 200 | 0.574 | 73.6 | Activity [17]: 82% |
